# Data from US10704076B2, “Multi-tiered high through-put screen for compounds effective against bacterial biofilm and compounds effective for inhibiting and eradicating bacterial biofilm” (University of Cincinnati, priority 2013, dated 2020).
# Tests used:
# A. baumannii = assay: HTS total bacterial growth assay (optical density OD560); format: cell-based, Acinetobacter baumannii; settings: Acinetobacter baumannii, 10 point dose-response 0.1-50 μM, NS* = no sigmoid curve observed, read-out: Total Bacteria Growth AC50
# From the text: (§1) Each HTS tier consisted of: (i) primary screening, (ii) confirmation screening and (iii) dose-response curve screening. Each tier of HTS included three distinct biological process assays. The first assay was an optical density measurement of bacteria growth in the presence of each compound reported as a total bacteria growth. In the second assay, resazurin solution was used as an indicator of metabolic activity to measure the live bacteria in the biofilms, reported as live biofilm. The final assay was crystal violet staining, which indicated the amount of biofilm formation and the effect of each compound on this process, reported as total biofilm formation.
# (§2) Briefly, stationary phase bacteria grown in L-broth were diluted 1:200 into fresh L-broth and 50 μM of each test compound. After 20-24 hours, the optical density (OD560) of each suspension was measured using Zeiss Plate::Vision with a 560 BP filter (560 nm, 2.5% light intensity, 1 mm focus to bottom of plate, and exposure time of 100 ms). To measure bacterial viability in the biofilm, 50 μl of a 5 mg/ml resazurin solution in L-broth was added to each well after washing 3 times with 50 μl of PBS. The plates were then incubated at 37° C. for 30 or 180 min for A. baumannii and P. aeruginosa biofilms, respectively. Fluorescence was measured using Zeiss Plate::Vision at excitation and emission wavelengths of 535 and 580 nm, 100 ms exposure time, 2.5% intensity and a 2 mm focus to the bottom of the biofilms. To assess biofilm formation, plates were washed 3 times with PBS and then 50 μl of 0.01% of crystal violet was added to each well to assess bacterial biofilm formation as described in a similar borosilicate tube assay by O'Toole and Kolter. After incubation at room temperature for 30 min and removal of the crystal violet solution by washing with PBS, 95% ethanol was added to solubilize the crystal violet followed by incubation for 20 min at room temperature. Finally, the optical density of each plate was determined using measured by Zeiss Plate::Vision using the same settings used to measure total bacterial growth. These 3 steps were used in each of the three tiers for the HTS process: (i) single point primary screening at 10 μM, (ii) triplicate confirmation of hits from (i) at 10 μM and (iii) determination of AC50 values in 10 point dose-response at a concentration range of 0.1-50 μM) in hits from (ii). The AC50 represents the concentration of compound that inhibits 50% of bacterial growth, bacterial viability, or biofilm formation. Genedata Screener® Assay Analyzer Software (Ver. 9.0.0 Standard) was used to analyze data from all assay tiers. Compounds with an AC50 of less than 20 μM in one of the biological assays from the dose response screen were subject to additional investigation.
# P. aeruginosa = assay: as above; format: cell-based, Pseudomonas aeruginosa; settings: Pseudomonas aeruginosa, 10 point dose-response 0.1-50 μM, read-out: Total Bacteria Growth AC50
# From the text: as §1, §2
# A. baumannii biofilm [1] = assay: HTS total biofilm formation assay (crystal violet staining); format: cell-based, Acinetobacter baumannii; settings: Acinetobacter baumannii, 10 point dose-response 0.1-50 μM
# From the text: as §1, §2
# P. aeruginosa biofilm [2] = assay: as above; format: cell-based, Pseudomonas aeruginosa; settings: Pseudomonas aeruginosa, 10 point dose-response 0.1-50 μM
# From the text: as §1, §2
# A. baumannii biofilm [3] = assay: HTS live biofilm assay (resazurin metabolic activity); format: cell-based, Acinetobacter baumannii; settings: Acinetobacter baumannii, 10 point dose-response 0.1-50 μM
# From the text: as §1, §2
# P. aeruginosa biofilm [4] = assay: as above; format: cell-based; settings: Pseudomonas aeruginosa, 10 point dose-response 0.1-50 μM
# From the text: as §1, §2
# A. baumannii biofilm [5] = assay: CLSM, co-culture of bacteria with compound (inhibition of biofilm formation); format: cell-based, Acinetobacter baumannii
# Description: (§3) Broad spectrum agents (effective against all three bacterial species) and single agent compounds identified as HTS hits were investigated with CLSM confirmation of inhibition of biofilm formation (culture of bacteria with compounds) or killing of bacteria residing within an established biofilm (compound addition after culturing biofilm). To evaluate inhibition of P. aeruginosa biofilms, bacteria were sub-cultured into 10% L-broth and grown at 37° C. until the OD600 reached 0.25. The bacteria were further diluted 1:100 into a modified 0.5×M63 minimum media (50 mM KH2PO4, 7.5 mM (NH4)2SO4, 9 μM FeSO4, 0.5% casamino acids, 0.2% glucose, and 1 mM MgSO4). A. baumannii biofilms were also grown in 10% L-broth until the OD600 reached 0.05 but diluted 1:10 into 5% L-broth media. S. epidermidis biofilm cultures were grown. Briefly, the bacteria were grown in TSB until the OD600 reached 0.75, and a 1:100 dilution of the bacteria was sub-cultured into phosphate buffered saline (PBS). All of the biofilm bacterial cultures were grown in 96-well plate chambers (MatTek Corp., Ashland, Mass.) in the presence of 10 μM of each compound or DMSO as a control and incubated for 18 hrs at 37° C. To investigate the ability of compounds to kill bacteria within pre-existing biofilms, biofilms were grown under the same conditions, but without test compound. These biofilms were washed once with PBS and incubated an additional 24 hr at 37° C. in PBS containing 300 μM of each compound. All biofilm cultures were then washed twice with 100 μL of PBS and stained using the LIVE/DEAD® BacLight™ Bacterial Viability Kit (Invitrogen). Finally, biofilm images were obtained using a Zeiss LSM510 META Confocal Microscope (Carl Zeiss, Inc., Germany). A 488 nm laser was used in conjunction with a Plan-Apochromat 100×/1.4 Oil DIC objective. Z-stacks were 8 bit and measured 127.3 μm×127.3 μm×16.0 μm in size. The filters used were 505-530 and 620-680 IR, as the excitation and emission wavelengths for red fluorescence are 490 nm and 635 nm, respectively, and 480 nm and 500 nm for green fluorescence. Three dimensional images were generated using the “Projection” ability on LSM Image Browser software (v.1.4.0.121) or Zeiss LSM image browser software version 3.5 (Carl Zeiss, Inc., Germany), and Live/Dead calculations were conducted based upon these images using MacBiophotonics ImageJ following the guidelines in the cell counting guide by C. Labno {Rasband, 1997-2011 #25; Labno, #2} at the University of Chicago Integrated Light Microscopy Core. The thickness of the biofilm was calculated using Comstat software. A hit was defined as a >50% dead to live ratio.
# (§4) The CLSM experiment was performed in one or two or all bacteria used in this study depending on its activity. For the validation of HTS hits, 10 μM of compound was added to each bacterial suspension and the resulting biofilm stained with LIVE/DEAD® BacLight™ Bacterial Viability Kit. The images were analyzed to determine the live and dead ratios of biofilm bacteria, the thickness of biofilms, and structural attributes of biofilms.
# P. aeruginosa biofilm [6] = assay: as above; format: cell-based, Pseudomonas aeruginosa
# Description: as §3, §4
# [7] = test system: P. aeruginosa established biofilm; assay: CLSM, effect of compound on the pre-existing biofilm; format: cell-based, Pseudomonas aeruginosa; settings: 300 μM, 24 hr
# Description: as §3, §4
# [8] = test system: S. epidermidis established biofilm; assay: Killing of established Se biofilm by compounds Se-1 through Se-16; format: cell-based, Staphylococcus epidermidis; settings: 300 μM compound, X / O
# From the text: This Example illustrates efficacy of compounds Se-1 through Se-16 at inhibiting S. epidermidis biofilm formation and/or killing established S. epidermidis biofilms. Detailed methods, materials and data are set forth in Shea, Chloe, U of Cincinnati Masters Thesis “Effectiveness of Novel Compounds at Inhibiting and Killing P. aeruginosa and S. epidermidis Biofilms” published on Mar. 17, 2013, the entire disclosure of which is incorporated herein by this reference. FIG. 8 illustrates effective inhibition of Se biofilm formation. For these experiments, Se was co-cultured with 10 μM of compounds Se-1 through Se-16 (see Table 5 for compound names and Table 6 for compound structures). A-H represents the top view of the Se biofilm, while the sagittal view is shown in I-P. The control Se biofilm is shown in A/I. Se biofilm formation in the presence of 10 μM of compound Se-3, Se-4, Se-13, Se-14, Se-15 or Se-16 as shown in B/J, C/K, D/L, E/M, F/N, G/O, and H/P, respectively. FIG. 9 illustrates effective killing of established Se biofilm. For this experiment, Se biofilms were treated with 300 μM of compounds Se-1 through Se-16. A-H represents the top view of the Se biofilm, while the sagittal view is shown in I-P. The control Se biofilm is shown in A/I. Effective killing was defined as >50% dead bacteria.
# [9] = CLSM, 10 μM compound, 18 hrs, Y / —
smiles,measurement,setting,value
"NC1=CC(=O)c2nonc2C1=O [Compound 2, 5-amino-2,1,3-Benzoxadiazole-4,7-dione]",AC50,A. baumannii,2.21 µM
same,AC50,P. aeruginosa,9.09 µM
same,AC50,A. baumannii biofilm [1],3.15 µM
same,AC50,P. aeruginosa biofilm [2],1.43 µM
same,AC50,A. baumannii biofilm [3],3.21 µM
same,AC50,P. aeruginosa biofilm [4],15.2 µM
same,"killing of residential bacteria, co-culture (CLSM, in words)",A. baumannii biofilm [5]; 10 μM,effectively killed the residential bacteria
same,Co-culture of bacteria with compound: Killing,A. baumannii biofilm [5]; [9],Y (A hit was defined as a >50% dead to live ratio)
same,"killing of residential bacteria, co-culture (CLSM, in words)",P. aeruginosa biofilm [6]; 10 μM,effectively killed the residential bacteria
same,Co-culture of bacteria with compound: Killing,P. aeruginosa biofilm [6]; [9],Y (A hit was defined as a >50% dead to live ratio)
"CC(C)(C)n1cc(C(=O)O)c(=O)c2cc(F)c(N3CCN(C(=S)S)CC3)nc21 [Compound 9, 1-(1,1-dimethylethyl)-1,4-dihydro-6-fluoro-4-oxo-7-(4-dithiocarboxypiperazin-1-yl)-1,8-Naphthyridinyl-3-carboxylic acid]",AC50,P. aeruginosa,27.7 µM
same,AC50,P. aeruginosa biofilm [2],3.6 µM
same,AC50,P. aeruginosa biofilm [4],8.14 µM
same,Co-culture of bacteria with compound: Inhibit biofilm formation,"P. aeruginosa biofilm [6]; CLSM, 10 μM compound, 18 hrs",failed to inhibit biofilm formation
same,"killing of established P. aeruginosa biofilm (CLSM, in words)",[7],failed to kill bacteria within a biofilm
"CN(C)c1ccc(CN2CCN(C(=O)Nc3ccc(C(F)(F)F)cc3)CC2)cc1 [Se3, 4-{[4-(dimethylamino]phenyl]methyl}-N-[4-(trifluoromethyl]phenyl]piperazine-1-carboxamide]",Killing,[8],X (Effective killing was defined as >50% dead bacteria)
"CCCCCCCCCCCCOCC[N+](CCO)(CCO)Cc1ccccc1 [Se4, 2-dodecoxyethyl-bis(2-hydroxyethyl)-(phenylmethyl)ammonium]",Killing,[8],X (Effective killing was defined as >50% dead bacteria)
"O=C(Nc1ccc(Cl)cc1)Nc1nnc(C(F)(F)F)s1 [Se10, 1-(4-chlorophenyl)-3-[5-(trifluoromethyl)-1,3,4-thiadiazol-2-yl]urea]",Killing,[8],X (Effective killing was defined as >50% dead bacteria)
"N#C/C(=N\Nc1ccc(OC(F)(F)F)cc1)C(=O)c1cccs1 [Se12, (2E]-3-keto-3-(2-thienyl]-2-[[4-(trifluoromethoxy)phenyl]hydrazono]propionitrile]",Killing,[8],X (Effective killing was defined as >50% dead bacteria)
"CN(C)c1ccc(C(=C2C=CC(=[N+](C)C)C=C2)c2ccc(N(C)C)cc2)cc1 [Se13, [4-[bis(4-dimethylaminophenyl]methylene]-1-cyclohexa-2,5-dienylidene]-dimethyl-ammonium]",Killing,[8],X (Effective killing was defined as >50% dead bacteria)
"CCc1c(C)[nH]c(CC(=O)O)c1C [Se14, 2-(4-ethyl-3,5-dimethyl-1H-pyrrol-2-yl]acetic acid]",Killing,[8],X (Effective killing was defined as >50% dead bacteria)
"O=C(Nc1cccc(F)c1)c1ccccc1NS(=O)(=O)c1ccc(Br)cc1 [Se15, 2-[(4-bromophenyl)sulfonylamino]-N-(3-fluorophenyl)benzamide]",Killing,[8],X (Effective killing was defined as >50% dead bacteria)
